Values after ≈ are worked out from the molar mass of the structure shown.

Data on three compounds can be found in paper PMC6272127, “Synthesis, Antiproliferative Activity and Molecular Properties Predictions of Galloyl Derivatives” (Molecules, 2015).

One data set concerns HT-29 (colon). The data set is described as follows: Anticancer assay in vitro (sulforhodamine B), HT-29. It counts as cell-based. To be noted: for TGI: HT-29, total growth inhibition; for GI50: HT-29, 48 h, SRB. How it is done: (§1) The experiments were performed in triplicate.
The subject of a further data set is 786-0 (renal). The data set is described as follows: cells. To be noted: for TGI: 786-0, total growth inhibition, 48 h; for GI50: 786-0, 48 h, SRB. It counts as cell-based. How it is done: as §1
The test system of data set [1] is NCI-ADR/RES (breast expressing the multiple drug resistance phenotype). The data set is described as follows: cells. It counts as cell-based. The conditions noted are these: NCI/ADR-RES, 48 h; for GI50: SRB; for TGI: total growth inhibition. The procedure: as §1
Data set [2] has as its system NCI-H460 (lung, non-small cells). The data set is described as follows: cells. The conditions noted are these: for GI50: NCI-H460, 48 h, SRB; for TGI: NCI-H460, total growth inhibition, 48 h. It counts as cell-based. The procedure: as §1
The test system of a further data set is K-562 (leukemia). The data set is described as follows: cells. It counts as cell-based. The conditions noted are these: for GI50: K-562, 48 h, SRB. How it is done: as §1
Another data set concerns PC-3 (prostate). The data set is described as follows: cells. To be noted: for GI50: PC-3, 48 h, SRB; for TGI: PC-3, total growth inhibition, 48 h. It counts as cell-based. How it is done:
as §1

The next data set deals with MCF-7 (breast). The data set is described as follows: Anticancer assay in vitro (sulforhodamine B), MCF-7. It counts as cell-based. The conditions noted are these: for GI50: MCF-7, 48 h, SRB. The procedure: as §1
The test system of another data set is OVCAR-3 (ovarian). As to the kind of experiment: Anticancer assay in vitro (sulforhodamine B), OVCAR-3. It counts as cell-based. The conditions noted are these: for GI50: OVCAR-3, 48 h, SRB; for TGI: OVCAR-3, total growth inhibition, 48 h. How it is done: as §1
A short description of data set [3]: Anticancer assay in vitro (sulforhodamine B), HaCaT. It counts as cell-based. The conditions noted are these: human, HaCaT keratinocytes, killing 50% of cells, read-out: LC50. The procedure:
as §1

The test system of the next data set is HaCaT (keratinocytes). The description is as above. The conditions noted are these: 48 h; for GI50: SRB; for TGI: total growth inhibition. It counts as cell-based. The procedure:
as §1

In a further data set the test system is U251 (glioma, CNS). The data set is described as follows: cells. To be noted: for TGI: U251, total growth inhibition, 48 h. How it is done:
The GI50 values (growth inhibitory activity) (Table 1) refer to the drug concentration that produces a 50% reduction of cellular growth compared with the untreated control cells. The TGI (cytostatic activity) and LC50 (cytotoxic activity) values (Table 2) refer to the drug concentration required for total growth inhibition and killing 50% of the cells, respectively.
The synthesized compounds were assessed in the following ten human tumor cell lines from various tissues kindly provide by the National Cancer Institute (Frederick, MD, USA): U251 (glioma, CNS), MCF-7 (breast), NCI-ADR/RES (breast expressing the multiple drug resistance phenotype), 786-0 (renal), NCI-H460 (lung, non-small cells), PC-3 (prostate), OVCAR-3 (ovarian), HT-29 (colon), K-562 (leukemia) and HaCaT (keratinocytes). Stock cultures were grown in media containing 5 mL of RPMI 1640 (Gibco BRL) supplemented with 5% fetal bovine serum. Gentamicin ([…]) was added to the experimental cultures. Cells in 96-well plates (100 µL cells/well) were exposed to sample concentrations in DMSO/RPMI (0.25, 2.5, 25, and 250 µg/mL) at 37 °C and 5% CO2 for 48 h. […] Next, cells were fixed with 50% trichloroacetic acid, and cell proliferation was determined by spectrophotometric quantification (540 nm) of cellular protein content employing the sulforhodamine B assay. Doxorubicin (0.025–25 µg/mL) was used as a positive control. Three measurements were obtained: first at time point zero (T0, at the beginning of incubation) and then 48 h post-incubation for both the compound-free (C) and tested (T) cells. Cell proliferation was determined using the equation 100 × [(T − T0)/C − T0]. A cytostatic effect was observed when T ≥ T0, while a cytocidal effect occurred when T < T0. The experiments were performed in triplicate.

Data set [4] concerns ten human tumor cell lines. As to the kind of experiment: Anticancer assay in vitro (sulforhodamine B), statements over the panel of cell lines. It counts as cell-based. The conditions noted are these: bound or range over all (for 4: nine) human tumor cell lines; read-out: GI50 values over the cell lines tested. How it is done: as §1
Setting [5] is: MCF-7, total growth inhibition, 48 h.
The mark [6] stands for this setting: K-562, total growth inhibition, 48 h.

For `NNC(=O)c1cc(O)c(O)c(O)c1` [Compound 3, Galloyl hydrazide], the TGI with HT-29 (colon) (48 h) stood at 3.27 µg/mL (≈ 17.8 µM); in the data set on 786-0 (renal), 17.98 µg/mL (≈ 97.6 µM); in [1], 2.56 µg/mL (≈ 13.9 µM); in data set [2] it was 17.35 µg/mL (≈ 94.2 µM); in the data set on PC-3 (prostate), 18.31 µg/mL (≈ 99.4 µM); in the data set with MCF-7 (breast) (MCF-7, as printed in the text), 2360 nM. Moreover, the total growth inhibition concentration (TGI) worked out at 2.36 µg/mL with MCF-7 (breast) (setting [5]); 9.77 µg/mL (≈ 53.1 µM) in the data set on OVCAR-3 (ovarian); 29.02 µg/mL (≈ 158 µM) with HaCaT (keratinocytes); 6.13 µg/mL (≈ 33.3 µM) with U251 (glioma, CNS). Moreover, the concentration for 50% growth inhibition (GI50) turned out to be 1210 nM in the data set on HT-29 (colon) (Homo sapiens); 1560 nM with 786-0 (renal) (Homo sapiens); 910 nM in [1] (Homo sapiens); 5540 nM in [2] (Homo sapiens); 1170 nM with K-562 (leukemia) (Homo sapiens, K562); 3530 nM in the data set with PC-3 (prostate) (Homo sapiens). Besides, the 50% growth inhibitory concentration (GI50) is 850 nM with MCF-7 (breast) (Homo sapiens, MCF7); no more than 890 nM in the data set with OVCAR-3 (ovarian) (Homo sapiens); 880 nM with OVCAR-3 (ovarian); 2500 nM with HaCaT (keratinocytes) (Homo sapiens); 1110 nM in the data set with U251 (glioma, CNS) (Homo sapiens, U-251, 48 h). Besides, the CC50 came out at 26.2 µg/mL (≈ 142 µM) in the data set with HT-29 (colon) (Homo sapiens, HT-29, killing 50% of cells, 48 h, read-out: LC50 (the source's name)) and 31.4 µg/mL (≈ 170 µM) in the data set on U251 (glioma, CNS) (Homo sapiens, U-251, 48 h, read-out: LC50). Moreover, in data set [3], the CC50 at 48 h was greater than 100 µg/mL.
Consider `CN(C)c1ccc(/C=N/NC(=O)c2cc(O)c(O)c(O)c2)cc1` [Compound 5, N'-(4-Dimethylaminobenzylidene)galloyl hydrazide], for which the TGI was 48.50 µg/mL (≈ 154 µM) in the data set on HT-29 (colon) (48 h); 83.07 µg/mL (≈ 263 µM) in data set [1]; 8980 nM in the data set with K-562 (leukemia) (K-562, as printed in the text); 8.98 µg/mL in the data set on K-562 (leukemia) (setting [6]); 20.26 µg/mL in the data set with MCF-7 (breast) (setting [5]); 41.52 µg/mL (≈ 132 µM) in the data set with OVCAR-3 (ovarian). In the data set on HaCaT (keratinocytes), the TGI was determined as 18.41 µg/mL (≈ 58.4 µM). The GI50 with HT-29 (colon) (Homo sapiens) came to 16200 nM; in the data set on 786-0 (renal) (Homo sapiens), 8930 nM; in data set [1] (Homo sapiens) it was 4680 nM; in data set [2] (Homo sapiens), 21600 nM; with K-562 (leukemia) (Homo sapiens, K562), 2050 nM; in the data set on MCF-7 (breast) (Homo sapiens, MCF7), 8610 nM. In addition, the 50% growth inhibitory concentration (GI50) stood at 2930 nM with OVCAR-3 (ovarian) (Homo sapiens); 4050 nM with HaCaT (keratinocytes) (Homo sapiens); 24100 nM in the data set with U251 (glioma, CNS) (Homo sapiens, U-251, 48 h). The CC50 in the data set on MCF-7 (breast) (Homo sapiens, MCF7, MCF-7, killing 50% of cells, 48 h, read-out: LC50 (the source's name)) was determined as 47.9 µg/mL (≈ 152 µM). Also, the CC50 at 48 h in data set [3] worked out at 55.3 µg/mL (≈ 175 µM).
Take “Galloyl-2-thioxo-1,3,4-oxadiazole [Compound 9]”: the LC50 result is reported as “(58.99) µg/mL” in the data set with HT-29 (colon); “(42.67) µg/mL” in data set [2]; “(58.99) µg/mL” in the data set on K-562 (leukemia); “(56.99) µg/mL” in the data set on PC-3 (prostate); “(58.99) µg/mL” with OVCAR-3 (ovarian); “(41.26) µg/mL” in the data set on U251 (glioma, CNS). The 50% growth inhibitory concentration (GI50) was 2610 nM with HT-29 (colon); less than 8900 nM in [4]; 8900 nM with 786-0 (renal); 2830 nM in [1]; 8770 nM in data set [2]; 1720 nM in the data set on K-562 (leukemia). For the same compound, the GI50 with PC-3 (prostate) worked out at 6050 nM; in the data set on MCF-7 (breast), 1080 nM; in the data set with OVCAR-3 (ovarian) it was 890 nM; in the data set on HaCaT (keratinocytes) it was 2250 nM; in the data set with U251 (glioma, CNS) (U251, 48 h, SRB) it was 4200 nM. Also, the TGI was 13.74 µg/mL with HT-29 (colon) (48 h); 24.68 µg/mL with 786-0 (renal); 15.86 µg/mL in [1]; 19.43 µg/mL in data set [2]; 11.35 µg/mL in the data set on K-562 (leukemia) (setting [6]); 18.09 µg/mL in the data set on PC-3 (prostate). The TGI is 5.06 µg/mL with MCF-7 (breast) (setting [5]); 13.62 µg/mL with OVCAR-3 (ovarian); 16.53 µg/mL with HaCaT (keratinocytes); 14.58 µg/mL in the data set on U251 (glioma, CNS).
